# US20100190788A1, “Amide derivatives as kinase inhitors” (priority 2005, published 2010)
# Biological target: T1, human ROCKα/ROCKII mix (Homo sapiens, UniProt O75116)
# T1 construct: purchased Upstate Biotechnology 14-451
# Test: ROCK inhibition, fluorescence polarization (FP) assay with ROCK IMAP Kit
# Assay type: biochemical
# [1] = Table 2, compounds of Formula V20
# [2] = Table 3, compounds of Formula III20
# T1 sequence (O75116 whole entry): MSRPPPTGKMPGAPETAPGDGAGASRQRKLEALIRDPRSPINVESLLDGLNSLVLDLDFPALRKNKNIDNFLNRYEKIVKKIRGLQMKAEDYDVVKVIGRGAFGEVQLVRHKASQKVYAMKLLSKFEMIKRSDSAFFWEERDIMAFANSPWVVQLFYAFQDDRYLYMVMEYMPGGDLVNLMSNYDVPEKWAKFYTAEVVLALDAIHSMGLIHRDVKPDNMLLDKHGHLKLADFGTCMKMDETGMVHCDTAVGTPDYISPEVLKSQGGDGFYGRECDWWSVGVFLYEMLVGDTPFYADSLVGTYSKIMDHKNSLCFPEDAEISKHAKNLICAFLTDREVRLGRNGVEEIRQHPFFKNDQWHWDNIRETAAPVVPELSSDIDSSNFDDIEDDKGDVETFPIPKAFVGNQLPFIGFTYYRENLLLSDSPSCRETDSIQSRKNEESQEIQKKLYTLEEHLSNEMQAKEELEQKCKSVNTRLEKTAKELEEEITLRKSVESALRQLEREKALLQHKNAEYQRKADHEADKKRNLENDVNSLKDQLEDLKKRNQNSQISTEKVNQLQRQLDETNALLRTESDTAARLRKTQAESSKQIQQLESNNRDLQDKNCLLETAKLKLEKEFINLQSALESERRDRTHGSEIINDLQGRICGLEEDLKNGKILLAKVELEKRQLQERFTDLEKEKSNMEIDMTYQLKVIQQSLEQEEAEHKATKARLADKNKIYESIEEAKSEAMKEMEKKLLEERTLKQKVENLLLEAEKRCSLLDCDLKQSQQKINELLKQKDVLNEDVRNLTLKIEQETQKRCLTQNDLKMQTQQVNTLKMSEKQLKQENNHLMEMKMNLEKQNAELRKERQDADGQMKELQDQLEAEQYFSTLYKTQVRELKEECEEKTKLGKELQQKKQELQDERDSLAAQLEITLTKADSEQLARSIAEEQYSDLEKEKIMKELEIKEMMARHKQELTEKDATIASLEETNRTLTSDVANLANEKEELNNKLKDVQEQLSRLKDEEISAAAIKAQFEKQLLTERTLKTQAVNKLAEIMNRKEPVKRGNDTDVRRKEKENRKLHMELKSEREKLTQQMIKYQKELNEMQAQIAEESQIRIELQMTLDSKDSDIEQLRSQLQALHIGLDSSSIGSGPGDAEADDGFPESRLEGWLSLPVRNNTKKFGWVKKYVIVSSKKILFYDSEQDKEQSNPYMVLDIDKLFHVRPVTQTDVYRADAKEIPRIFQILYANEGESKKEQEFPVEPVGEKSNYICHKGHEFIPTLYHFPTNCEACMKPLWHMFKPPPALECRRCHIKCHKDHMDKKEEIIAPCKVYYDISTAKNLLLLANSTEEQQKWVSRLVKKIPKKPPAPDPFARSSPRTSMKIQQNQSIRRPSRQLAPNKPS
SMILES,IC50 [2] [µM],other results
"NC(CNS(=O)(=O)c1cccc2ccccc12)c1ccc(C(=O)Nc2ccncc2)cc1 (stereo not shown) [Compound 77, 4-[1-amino-2-(naphthalene-1-sulfonylamino)-ethyl]-N-pyridin-4-yl-benzamide]",–,IC50 [1]: < 0.5 µM
"NC(CNS(=O)(=O)c1cccs1)c1ccc(C(=O)Nc2ccncc2)cc1 (stereo not shown) [Compound 78, 4-[1-amino-2-(thiophene-2-sulfonylamino)-ethyl]-N-pyridin-4-yl-benzamide]",–,IC50 [1]: < 0.5 µM
"Cc1noc(C)c1S(=O)(=O)NCC(N)c1ccc(C(=O)Nc2ccncc2)cc1 (stereo not shown) [Compound 79, 4-[1-amino-2-(3,5-dimethyl-isoxazole-4-sulfonylamino)-ethyl]-N-pyridin-4-yl-benzamide]",–,IC50 [1]: < 0.5 µM
"Cc1nn(C)c(Cl)c1S(=O)(=O)NCC(N)c1ccc(C(=O)Nc2ccncc2)cc1 (stereo not shown) [Compound 80, 4-[1-amino-2-(5-chloro-1,3-dimethyl-1H-pyrazole-4-sulfonylamino)-ethyl]-N-pyridin-4-yl-benzamide]",–,IC50 [1]: 0.5 to 5 µM
"NC(CNS(=O)(=O)c1cccc2nonc12)c1ccc(C(=O)Nc2ccncc2)cc1 (stereo not shown) [Compound 81, 4-[1-amino-2-(benzo[1,2,5]-oxadiazole-4-sulfonylamino)-ethyl]-N-pyridin-4-yl-benzamide]",–,IC50 [1]: < 0.5 µM
"NC(CNS(=O)(=O)c1cccc2nsnc12)c1ccc(C(=O)Nc2ccncc2)cc1 (stereo not shown) [Compound 82, 4-[1-amino-2-(benzo[1,2,5]-thiadiazole-4-sulfonylamino)-ethyl]-N-pyridin-4-yl-benzamide]",–,IC50 [1]: < 0.5 µM
"NC(C(=O)N1CCCC1c1cccc(F)c1)c1ccc(C(=O)Nc2ccncc2)cc1 (stereo not shown) [Compound 83, 4-{1-amino-2-[2-(3-fluoro-phenyl)-pyrrolidin-1-yl]-2-oxo-ethyl}-N-pyridin-4-yl-benzamide]",–,"IC50 (Table 1, compounds of Formula IV20): < 0.5 µM"
"NC(CC(=O)N1CCCC1c1ccccc1)c1ccc(C(=O)Nc2ccncc2)cc1 (stereo not shown) [Compound 84, 4-[1-amino-3-oxo-3-(2-phenyl-pyrrolidin-1-yl)-propyl]-N-pyridin-4-yl-benzamide]",< 0.5,–
"NC(CC(=O)N1CCCC1c1cccc(Cl)c1)c1ccc(C(=O)Nc2ccncc2)cc1 (stereo not shown) [Compound 85, 4-{1-amino-3-[2-(3-chloro-phenyl)-pyrrolidin-1-yl]-3-oxo-propyl}-N-pyridin-4-yl-benzamide]",< 0.5,–
"NC(CC(=O)N1CCCC1c1cc(F)ccc1F)c1ccc(C(=O)Nc2ccncc2)cc1 (stereo not shown) [Compound 88, 4-{1-amino-3-[2-(2,5-difluoro-phenyl)-pyrrolidin-1-yl]-3-oxo-propyl}-N-pyridin-4-yl-benzamide]",< 0.5,–
"NC(CC(=O)N1CCCC1c1ccc(F)cc1F)c1ccc(C(=O)Nc2ccncc2)cc1 (stereo not shown) [Compound 89, 4-{1-amino-3-[2-(2,4-difluoro-phenyl)-pyrrolidin-1-yl]-3-oxo-propyl}-N-pyridin-4-yl-benzamide]",< 0.5,–
"NC(CC(=O)N1CCCC1c1ccc(Cl)cc1)c1ccc(C(=O)Nc2ccncc2)cc1 (stereo not shown) [Compound 90, 4-{1-amino-3-[2-(4-chloro-phenyl)-pyrrolidin-1-yl]-3-oxo-propyl}-N-pyridin-4-yl-benzamide]",< 0.5,–
"NC(CC(=O)N1CCCCC1c1ccc(Cl)cc1)c1ccc(C(=O)Nc2ccncc2)cc1 (stereo not shown) [Compound 94, 4-{1-amino-3-[2-(4-chloro-phenyl)-piperidin-1-yl]-3-oxo-propyl}-N-pyridin-4-yl-benzamide]",< 0.5,–
"NC(CC(=O)N1CCCCC1c1cc(Cl)ccc1Cl)c1ccc(C(=O)Nc2ccncc2)cc1 (stereo not shown) [Compound 95, 4-{1-amino-3-[2-(2,5-dichloro-phenyl)-piperidin-1-yl]-3-oxo-propyl}-N-pyridin-4-yl-benzamide]",< 0.5,–
"COc1ccc(Cl)cc1C1CCCCN1C(=O)CC(N)c1ccc(C(=O)Nc2ccncc2)cc1 (stereo not shown) [Compound 96, 4-{1-amino-3-[2-(5-chloro-2-methoxy-phenyl)-piperidin-1-yl]-3-oxo-propyl}-N-pyridin-4-yl-benzamide]",< 0.5,–
"NC(CC(=O)N1CCOCC1c1ccc(F)cc1)c1ccc(C(=O)Nc2ccncc2)cc1 (stereo not shown) [Compound 101, 4-{1-amino-3-[3-(4-fluoro-phenyl)-morpholin-4-yl]-3-oxo-propyl}-N-pyridin-4-yl-benzamide]",< 0.5,–
"NC(CC(=O)N1CCc2c(Cl)cccc2C1)c1ccc(C(=O)Nc2ccncc2)cc1 (stereo not shown) [Compound 102, 4-[1-amino-3-(5-chloro-3,4-dihydro-1H-isoquinolin-2-yl)-3-oxo-propyl]-N-pyridin-4-yl-benzamide]",< 0.5,–
"NC(CC(=O)N1CCCCC1)c1ccc(C(=O)Nc2ccncc2)cc1 (stereo not shown) [Compound 107, 4-(1-amino-3-oxo-3-piperidin-1-yl-propyl)-N-pyridin-4-yl-benzamide]",< 0.5,–
"NC(CC(=O)N1CCCC2CCCCC21)c1ccc(C(=O)Nc2ccncc2)cc1 (stereo not shown) [Compound 110, 4-[1-amino-3-(octahydro-quinolin-1-yl)-3-oxo-propyl]-N-pyridin-4-yl-benzamide]",< 0.5,–
"CC(C)N1CCN(C(=O)CC(N)c2ccc(C(=O)Nc3ccncc3)cc2)CC1 (stereo not shown) [Compound 114, 4-[1-amino-3-(4-isopropyl-piperazin-1-yl)-3-oxo-propyl]-N-pyridin-4-yl-benzamide]",< 0.5,–
"NC(CC(=O)N1CCN(CCO)CC1)c1ccc(C(=O)Nc2ccncc2)cc1 (stereo not shown) [Compound 115, 4-{1-amino-3-[4-(2-hydroxy-ethyl)-piperazin-1-yl]-3-oxo-propyl}-N-pyridin-4-yl-benzamide]",< 0.5,–

# The next lines start with results.
IC50 [2] [µM],SMILES,other results
< 0.5,"NC(CC(=O)N1CCCC1c1ccc(F)cc1)c1ccc(C(=O)Nc2ccncc2)cc1 (stereo not shown) [Compound 86, 4-{1-amino-3-[2-(4-fluoro-phenyl)-pyrrolidin-1-yl]-3-oxo-propyl}-N-pyridin-4-yl-benzamide]",–
< 0.5,"NC(CC(=O)N1CCCC1c1cccc(F)c1)c1ccc(C(=O)Nc2ccncc2)cc1 (stereo not shown) [Compound 87, 4-{1-amino-3-[2-(3-fluoro-phenyl)-pyrrolidin-1-yl]-3-oxo-propyl}-N-pyridin-4-yl-benzamide]",–
< 0.5,"NC(CC(=O)N1CCCC1c1ccc(Cl)c(Cl)c1)c1ccc(C(=O)Nc2ccncc2)cc1 (stereo not shown) [Compound 91, 4-{1-amino-3-[2-(3,4-dichloro-phenyl)-pyrrolidin-1-yl]-3-oxo-propyl}-N-pyridin-4-yl-benzamide]",–
< 0.5,"NC(CC(=O)N1CCCCC1c1ccccc1)c1ccc(C(=O)Nc2ccncc2)cc1 (stereo not shown) [Compound 92, 4-[1-amino-3-oxo-3-(2-phenyl-piperidin-1-yl)-propyl]-N-pyridin-4-yl-benzamide]",–
< 0.5,"NC(CC(=O)N1CCCCC1c1cccc2ccccc12)c1ccc(C(=O)Nc2ccncc2)cc1 (stereo not shown) [Compound 93, 4-[1-amino-3-(2-naphthalen-1-yl-piperidin-1-yl)-3-oxo-propyl]-N-pyridin-4-yl-benzamide]",–
< 0.5,"NC(CC(=O)N1CCCCC1c1ccc(F)cc1)c1ccc(C(=O)Nc2ccncc2)cc1 (stereo not shown) [Compound 97, 4-{1-amino-3-[2-(4-fluoro-phenyl)-piperidin-1-yl]-3-oxo-propyl}-N-pyridin-4-yl-benzamide]",–
< 0.5,"COc1cccc(C2CCCCN2C(=O)CC(N)c2ccc(C(=O)Nc3ccncc3)cc2)c1 (stereo not shown) [Compound 98, 4-{1-amino-3-[2-(3-methoxy-phenyl)-piperidin-1-yl]-3-oxo-propyl}-N-pyridin-4-yl-benzamide]",–
< 0.5,"NC(CC(=O)N1CCOCC1c1ccccc1)c1ccc(C(=O)Nc2ccncc2)cc1 (stereo not shown) [Compound 99, 4-[1-Amino-3-oxo-3-(3-phenyl-morpholin-4-yl)-propyl]-N-pyridin-4-yl-benzamide]",–
< 0.5,"NC(CC(=O)N1CCOCC1c1ccc(Cl)cc1)c1ccc(C(=O)Nc2ccncc2)cc1 (stereo not shown) [Compound 100, 4-{1-amino-3-[3-(4-chloro-phenyl)-morpholin-4-yl]-3-oxo-propyl}-N-pyridin-4-yl-benzamide]",–
< 0.5,"NC(CC(=O)N1CCc2ccc(Cl)cc2C1)c1ccc(C(=O)Nc2ccncc2)cc1 (stereo not shown) [Compound 103, 4[1-amino-3-(7-chloro-3,4-dihydro-1H-isoquinolin-2-yl)-3-oxo-propyl]-N-pyridin-4-yl-benzamide]",–
< 0.5,"NC(CC(=O)N1CCc2ccc(F)cc2C1)c1ccc(C(=O)Nc2ccncc2)cc1 (stereo not shown) [Compound 104, 4-[1-amino-3-(7-fluoro-3,4-dihydro-1H-isoquinolin-2-yl)-3-oxo-propyl]-N-pyridin-4-yl-benzamide]",–
< 0.5,"NC(CC(=O)N1Cc2ccccc2C1)c1ccc(C(=O)Nc2ccncc2)cc1 (stereo not shown) [Compound 105, 4-[1-amino-3-(1,3-dihydro-isoindol-2-yl)-3-oxo-propyl]-N-pyridin-4-yl-benzamide]",–
< 0.5,"NC(CC(=O)N1CCSC1)c1ccc(C(=O)Nc2ccncc2)cc1 (stereo not shown) [Compound 106, 4-(1-amino-3-oxo-3-thiazolidin-3-yl-propyl)-N-pyridin-4-yl-benzamide]",–
< 0.5,"CC1CC(C)CN(C(=O)CC(N)c2ccc(C(=O)Nc3ccncc3)cc2)C1 (stereo not shown) [Compound 108, 4-[1-amino-3-(3,5-dimethyl-piperidin-1-yl)-3-oxo-propyl]-N-pyridin-4-yl-benzamide]",–
< 0.5,"NC(CC(=O)N1CCCC(CO)C1)c1ccc(C(=O)Nc2ccncc2)cc1 (stereo not shown) [Compound 109, 4-[1-amino-3-(3-hydroxymethyl-piperidin-1-yl)-3-oxo-propyl]-N-pyridin-4-yl-benzamide]",–
< 0.5,"NC(CC(=O)N1CCC(O)(c2ccccc2)CC1)c1ccc(C(=O)Nc2ccncc2)cc1 (stereo not shown) [Compound 111, 4-[1-amino-3-(4-hydroxy-4-phenyl-piperidin-1-yl)-3-oxo-propyl]-N-pyridin-4-yl-benzamide]",–
< 0.5,"NC(CC(=O)N1CCOCC1)c1ccc(C(=O)Nc2ccncc2)cc1 (stereo not shown) [Compound 112, 4-(1-amino-3-morpholin-4-yl-3-oxo-propyl)-N-pyridin-4-yl-benzamide]",–
< 0.5,"CC1CN(C(=O)CC(N)c2ccc(C(=O)Nc3ccncc3)cc2)CC(C)O1 (stereo not shown) [Compound 113, 4-[1-amino-3-(2,6-dimethyl-morpholin-4-yl)-3-oxo-propyl]-N-pyridin-4-yl-benzamide]",–
< 0.5,"NC(CC(=O)N1CCN(c2ccccc2)CC1)c1ccc(C(=O)Nc2ccncc2)cc1 (stereo not shown) [Compound 116, 4-[1-amino-3-oxo-3-(4-phenyl-piperazin-1-yl)-propyl]-N-pyridin-4-yl-benzamide]",–
